Experimental data published in patent publication US9346809B2 (LEO PHARMA A/S, priority 2009, dated 2016).
Where two headings read alike, the source gives them in different places.

Key:
Format in all cases: biochemical
[1] = molecular target: T1, JAK3 (catalytic domain, His-tag) (Homo sapiens, UniProt P52333); assay: JAK kinase assay (HTRF, phosphorylation of TK substrate-biotin), JAK3; details: ATP at Km (2 μM), read-out: JAK3 kinase inhibitory activity (EC50 indicator)
T1 construct: All four purified enzymes contain only the catalytic domain; His (N); purchased Carna Biosciences, Inc; host or cells: baculovirus expression system
In short: (§1)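 EC50 values come from HTRF detection of phospho-biotin-TK peptide (1 μM) after 20-30 min RT reactions in Hepes pH 7.0 buffer with 0.75% DMSO. ATP was at Km for each enzyme: 7 μM JAK1, 4 μM JAK2, 2 μM JAK3, 13 μM TYK2. SEB (50 nM) was added for JAK1 and TYK2 only.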

[2] = molecular target: T2, TYK2 (aa 871-1187, catalytic domain, GST-tag) (Homo sapiens, UniProt P29597); assay: JAK kinase assay (HTRF, phosphorylation of TK substrate-biotin), TYK2; details: ATP at Km (13 μM), read-out: TYK2 kinase inhibitory activity (EC50 indicator)
T2 construct: JAK1 (aa 850-1154) and TYK2 (aa 871-1187) are expressed with an N-terminally fused GST-tag; GST (N); purchased Carna Biosciences, Inc; host or cells: baculovirus expression system
T2 sequence (P29597 871-1187): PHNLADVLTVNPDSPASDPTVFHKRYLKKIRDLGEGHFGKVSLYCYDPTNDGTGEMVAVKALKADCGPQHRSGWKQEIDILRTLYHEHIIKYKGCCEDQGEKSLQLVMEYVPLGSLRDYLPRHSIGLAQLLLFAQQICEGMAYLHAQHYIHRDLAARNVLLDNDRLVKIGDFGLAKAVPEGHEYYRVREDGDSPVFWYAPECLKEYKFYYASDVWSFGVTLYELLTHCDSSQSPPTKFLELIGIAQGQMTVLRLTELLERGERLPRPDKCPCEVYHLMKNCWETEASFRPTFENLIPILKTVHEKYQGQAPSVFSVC
In short: as §1

[3] = molecular target: T3, JAK1 (aa 850-1154, catalytic domain, GST-tag) (Homo sapiens, UniProt P23458); assay: JAK kinase assay (HTRF, phosphorylation of TK substrate-biotin), JAK1; details: ATP at Km (7 μM), read-out: JAK1 kinase inhibitory activity (EC50 indicator)
T3 construct: JAK1 (aa 850-1154) and TYK2 (aa 871-1187) are expressed with an N-terminally fused GST-tag; GST (N); purchased Carna Biosciences, Inc; host or cells: baculovirus expression system
In short: as §1

[4] = molecular target: T4, JAK2 (catalytic domain, His-tag) (Homo sapiens, UniProt O60674); assay: JAK kinase assay (HTRF, phosphorylation of TK substrate-biotin), JAK2; details: ATP at Km (4 μM), read-out: JAK2 kinase inhibitory activity (EC50 indicator)
T4 construct: All four purified enzymes contain only the catalytic domain; His (N); purchased Carna Biosciences, Inc; host or cells: baculovirus expression system
In short: as §1

T1 sequence (P52333 822-1111 limits assumed): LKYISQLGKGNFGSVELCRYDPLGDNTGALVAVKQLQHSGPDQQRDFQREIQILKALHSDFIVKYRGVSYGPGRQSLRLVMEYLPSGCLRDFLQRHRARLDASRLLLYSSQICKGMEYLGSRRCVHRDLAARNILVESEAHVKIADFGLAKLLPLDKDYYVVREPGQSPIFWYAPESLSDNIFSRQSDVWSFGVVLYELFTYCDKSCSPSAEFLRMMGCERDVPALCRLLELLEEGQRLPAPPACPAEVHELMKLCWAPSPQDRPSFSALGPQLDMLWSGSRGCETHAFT
T3 sequence (P23458 850-1154): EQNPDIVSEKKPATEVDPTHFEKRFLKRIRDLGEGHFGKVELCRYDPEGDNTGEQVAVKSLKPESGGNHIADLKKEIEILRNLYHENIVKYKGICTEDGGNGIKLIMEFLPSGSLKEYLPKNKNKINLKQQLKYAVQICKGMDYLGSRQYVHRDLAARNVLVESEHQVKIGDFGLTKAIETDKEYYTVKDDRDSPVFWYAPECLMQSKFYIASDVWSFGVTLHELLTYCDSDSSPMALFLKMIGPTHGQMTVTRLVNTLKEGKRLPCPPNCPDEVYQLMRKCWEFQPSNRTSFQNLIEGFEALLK
T4 sequence (O60674 849-1124 limits assumed): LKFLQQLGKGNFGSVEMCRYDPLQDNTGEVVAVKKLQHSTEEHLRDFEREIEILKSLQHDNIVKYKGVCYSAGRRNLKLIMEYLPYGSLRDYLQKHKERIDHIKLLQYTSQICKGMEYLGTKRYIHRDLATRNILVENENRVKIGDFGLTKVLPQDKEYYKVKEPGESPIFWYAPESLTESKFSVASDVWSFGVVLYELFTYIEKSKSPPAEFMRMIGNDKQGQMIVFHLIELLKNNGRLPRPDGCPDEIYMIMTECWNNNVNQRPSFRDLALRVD

| EC50 [1] [nM] | EC50 [2] [nM] | EC50 [3] [nM] | EC50 [4] [nM] | EC50 ([1]; HTRF assay) [nM] | EC50 ([2]; HTRF assay) [nM] | EC50 ([3]; HTRF assay) [nM] | EC50 ([4]; HTRF assay) [nM] | SMILES |
| --- | --- | --- | --- | --- | --- | --- | --- | --- |
| 100 to 500 | 100 to 500 | < 100 | < 100 |  |  |  |  | CN(C)S(=O)(=O)c1ccc(C(=O)N2CCN(c3ncnc4[nH]ccc34)CC23CC3)cc1 [Example 189, N,N-Dimethyl-4-[7-(7H-pyrrolo[2,3-d]pyrimidin-4-yl)-4,7-diaza-spiro[2.5]octane-4-carbonyl]-benzenesulfonamide] |
| < 100 | > 500 | < 100 | < 100 |  |  |  |  | NS(=O)(=O)c1ccc(CC(=O)N2CCN(c3ncnc4[nH]ccc34)CC23CC3)cc1 [Example 191, 4-{2-Oxo-2-[7-(7H-pyrrolo[2,3-d]pyrimidin-4-yl)-4,7-diaza-spiro[2.5]oct-4-yl]-ethyl}-benzenesulfonamide] |
| 100 to 500 | > 500 | < 100 | < 100 |  |  |  |  | CC(C)S(=O)(=O)c1ccc(C(=O)N2CCN(c3ncnc4[nH]ccc34)CC23CC3)cc1 [Example 196, [4-(Propane-2-sulfonyl)-phenyl]-[7-(7H-pyrrolo[2,3-d]pyrimidin-4-yl)-4,7-diaza-spiro[2.5]oct-4-yl]-methanone] |
| < 100 | < 100 | < 100 | < 100 |  |  |  |  | NS(=O)(=O)c1ccc(/C=C/C(=O)N2CCN(c3ncnc4[nH]ccc34)CC23CC3)cc1 [Example 197, 4-{3-Oxo-3-[7-(7H-pyrrolo[2,3-d]pyrimidin-4-yl)-4,7-diaza-spiro[2.5]oct-4-0]-propenyl}-benzenesulfonamide] |
| > 500 | > 500 | 100 to 500 | 100 to 500 |  |  |  |  | CC(C)S(=O)(=O)c1ccc(C(=O)N2C3CCC2CN(c2ncnc4[nH]ccc24)C3)cc1 [Example 202, [4-(Propane-2-sulfonyl)-phenyl]-[3-(7H-pyrrolo[2,3-d]pyrimidin-4-yl)-3,8-diaza-bicyclo[3.2.1]oct-8-yl]-methanone] |
| < 100 | 100 to 500 | < 100 | < 100 |  |  |  |  | O=C(c1ccc(S(=O)(=O)NCc2cccs2)cc1)N1CCN(c2ncnc3[nH]ccc23)CC12CC2 [Example 204, 4-[7-(7H-Pyrrolo[2,3-d]pyrimidin-4-yl)-4,7-diaza-spiro[2.5]octane-4-carbonyl]-N-thiophen-2-ylmethyl-benzenesulfonamide] |

Further lines, the compound ahead of its results:

| SMILES | EC50 [1] [nM] | EC50 [2] [nM] | EC50 [3] [nM] | EC50 [4] [nM] | EC50 ([1]; HTRF assay) [nM] | EC50 ([2]; HTRF assay) [nM] | EC50 ([3]; HTRF assay) [nM] | EC50 ([4]; HTRF assay) [nM] |
| --- | --- | --- | --- | --- | --- | --- | --- | --- |
| Cn1cc(S(N)(=O)=O)cc1C(=O)N1CCN(c2ncnc3[nH]ccc23)CC12CC2 [Example 188, 1-Methyl-5-[7-(7H-pyrrolo[2,3-d]pyrimidin-4-yl)-4,7-diaza-spiro[2.5]octane-4-carbonyl]-1H-pyrrole-3-sulfonic acid amide] | < 100 | < 100 | < 100 | < 100 |  |  |  |  |
| O=C(Cc1cccs1)N1CCN(c2ncnc3[nH]ccc23)CC12CC2 [Example 190, 1-[7-(7H-Pyrrolo[2,3-d]pyrimidin-4-yl)-4,7-diaza-spiro[2.5]oct-4-yl]-2-thiophen-2-yl-ethanone] | < 100 | 100 to 500 | < 100 | < 100 |  |  |  |  |
| O=C(c1cc2cc(F)cc(F)c2[nH]1)N1CCN(c2ncnc3[nH]ccc23)CC12CC2 [Example 192, (5,7-Difluoro-1H-indol-2-yl)-[7-(7H-pyrrolo[2,3-d]pyrimidin-4-yl)-4,7-diaza-spiro[2.5]oct-4-yl]-methanone] | < 100 | < 100 | < 100 | < 100 |  |  |  |  |
| N#Cc1ccc(C(=O)N2CCN(c3ncnc4[nH]ccc34)CC23CC3)s1 [Example 193, 5-[7-(7H-Pyrrolo[2,3-d]pyrimidin-4-yl)-4,7-diaza-spiro[2.5]octane-4-carbonyl]-thiophene-2-carbonitrile] | < 100 | < 100 | < 100 | < 100 |  |  |  |  |
| CS(=O)(=O)c1ccc(C(=O)N2CCN(c3ncnc4[nH]ccc34)CC23CC3)cc1N1CCCC1 [Example 194, (4-Methanesulfonyl-3-pyrrolidin-1-yl-phenyl)-[7-(7H-pyrrolo[2,3-d]pyrimidin-4-yl)-4,7-diaza-spiro[2.5]oct-4-yl]-methanone] | 100 to 500 | > 500 | < 100 | < 100 |  |  |  |  |
| NS(=O)(=O)c1ccc(CC(=O)N2CCN(c3ncnc4[nH]ccc34)CC23CC3)s1 [Example 195, 5-{2-Oxo-2-[7-(7H-pyrrolo[2,3-d]pyrimidin-4-yl)-4,7-diaza-spiro[2.5]oct-4-yl]-ethyl}-thiophene-2-sulfonic acid amide] | < 100 | 100 to 500 | < 100 | < 100 |  |  |  |  |
| NS(=O)(=O)c1ccc(C(=O)N2CCN(c3ncnc4[nH]ccc34)CC23CC3)o1 [Example 198, 5-[7-(7H-Pyrrolo[2,3-d]pyrimidin-4-yl)-4,7-diaza-spiro[2.5]octane-4-carbonyl]-furan-2-sulfonic acid amide] | < 100 | < 100 | < 100 | < 100 |  |  |  |  |
| N#Cc1csc(C(=O)N2C3CCC2CN(c2ncnc4[nH]ccc24)C3)c1 [Example 199, 5-[3-(7H-Pyrrolo[2,3-d]pyrimidin-4-yl)-3,8-diaza-bicyclo[3.2.1]octane-8-carbonyl]-thiophene-3-carbonitrile] | < 100 | 100 to 500 | < 100 | < 100 |  |  |  |  |
| Cc1ccc2[nH]c(C(=O)N3C4CCC3CN(c3ncnc5[nH]ccc35)C4)cc2c1 [Example 200, (5-Methyl-1H-indol-2-yl)-[3-(7H-pyrrolo[2,3-d]pyrimidin-4-yl)-3,8-diaza-bicyclo[3.2.1]oct-8-yl]-methanone] | 100 to 500 | > 500 | < 100 | < 100 |  |  |  |  |
| Cc1c(C(=O)N2C3CCC2CN(c2ncnc4[nH]ccc24)C3)[nH]c2ccc(F)cc12 [Example 201, (5-Fluoro-3-methyl-1H-indol-2-yl)-[3-(7H-pyrrolo[2,3-d]pyrimidin-4-yl)-3,8-diaza-bicyclo[3.2.1]oct-8-yl]-methanone] | 100 to 500 | > 500 | < 100 | 100 to 500 |  |  |  |  |
| NS(=O)(=O)c1ccc(C(=O)N2C3CCC2CN(c2ncnc4[nH]ccc24)C3)o1 [Example 203] | < 100 | > 500 | < 100 | < 100 |  |  |  |  |
| O=C(C(=O)N1CCN(c2ncnc3[nH]ccc23)CC12CC2)c1cccs1 [Example 205, 1-[7-(7H-Pyrrolo[2,3-d]pyrimidin-4-yl)-4,7-diaza-spiro[2.5]oct-4-yl]-2-thiophen-2-yl-ethane-1,2-d lone] | < 100 | 100 to 500 | < 100 | < 100 |  |  |  |  |
| COc1ccc(C(=O)N2CCN(c3ncnc4[nH]ccc34)CC23CC3)s1 [Example 206, (5-Methoxy-thiophen-2-yl)-[7-(7H-pyrrolo[2,3-d]pyrimidin-4-yl)-4,7-diaza-spiro[2.5]oct-4-yl]-methanone] |  |  |  |  | < 100 | < 100 | < 100 | < 100 |
| CCCc1cc(C(=O)N2CCN(c3ncnc4[nH]ccc34)CC23CC3)cs1 [Example 207, (5-Propyl-thiophen-3-yl)-[7-(7H-pyrrolo[2,3-d]pyrimidin-4-yl)-4,7-diaza-spiro[2.5]oct-4-yl]-methanone] |  |  |  |  | 100 to 500 | 100 to 500 | < 100 | < 100 |
